Patent US20150038493A1, “COMPOUNDS THAT TRAP ALPHA-OXOALDEHYDES AND ALPHA-BETA-UNSATURATED ALDEHYDES, META-COMPOUNDS CONTAINING SUCH COMPOUNDS, AND USE OF SAID COMPOUNDS IN TREATING ILLNESSES RELATED TO THE ACCUMULATION OF AGES AND ALES” (PHARMAMENS, priority 2011, published 2015)
Peptide text beside a SMILES is read from it.

Assays:
[1] = Scavenging of glyoxal (GO) generated from glucose incubated at 37° C., LC-MS assay after 2,3-diaminonaphthalene derivatization; conditions: for GO scavenging activity (in words): compound 100 μM added on 7th day, FIG. 1; for level of GO observed after 14 days: glucose 50 mM, phosphate buffer pH 7.4, 37° C., compound added on 7th day, final concentration 100 μM
Method: (§1) An aqueous solution of glucose (50 mM in phosphate buffer at 100 mM, pH=7.4) is incubated at 37° C. for 14 days in order to “naturally” generate glyoxal (GO) and methylglyoxal (MGO). The compound tested is introduced on the 7th day (final concentration=100 μM). The GO and MGO concentrations of the medium are measured at regular intervals by LC-MS assaying, after derivatization with 2,3-diaminonaphthalene, in order to determine the effect of the compound tested.
(§2) The results of the assays are compared with those obtained without the addition of scavenger compound (control) and with those obtained during the addition of a reference compound (aminoguanidine, D-Dap, D-Dap-L-Leu, 8-hydroxyquinoline).
(§3) A solution S0 of glucose (50 mM) in phosphate buffer (100 mM, pH=7.4) is prepared and then filtered through a sterile 0.2 μm membrane into a sterile Falcon tube, under a vertical laminar flow filtering hood. 1000 μl of solution S0 are then charged to several sterile capped Eppendorf tubes (1.5 ml) which are then stoppered and placed at 37° C., in the dark, for 14 days (“control” series). The rest of the solution S0 is incubated in the same way, in a Falcon tube. The Eppendorf tubes are then removed, one by one, at regular intervals (approximately 24 h) and are immediately placed at −20° C. while awaiting analysis.
(§4) On D=7, an aqueous solution S1 of the compound tested (5 mM) is prepared and then filtered through a sterile 0.2 μm membrane into a sterile Falcon tube, under a vertical laminar flow filtering hood. A mixture of the solution S1 (140 μl) and of the remaining solution S0, incubated for 7 days at 37° C. (6860 μl), is then prepared before being divided up between 6 sterile Eppendorf tubes (6×1000 μl) which are subsequently stoppered and placed at 37° C., in the dark, for 7 days (“test” series). These tubes are removed, one by one, at regular intervals (approximately 24 h) and are immediately placed at −20° C. while awaiting analysis. On D=14, the tubes of the “control” and “test” series are thawed and are each treated with 100 μl of a solution of 2,3-diaminonaphthalene (10 mM) in order to derivatize the GO and the MGO, respectively in the form of GO-DAN and of MGO-DAN. After homogenization (vortex for 10 sec), the tubes are left to stand for 24 h, at 20° C., in the dark. The GO-DAN and the MGO-DAN are then assayed in each sample by LC-MS (Shimadzu LCMS-2020), by external calibration carried out with standard solutions of GO-DAN and of MGO-DAN, according to the following conditions. Column: Shim-pack XR-ODS II (75×2 mm, 80 Å), temperature: 40° C., eluent: water/methanol (50/50)+0.1% of formic acid, flow rate: 300 μl/min, analysis time: 10 min, injection volume: 1 μl, detection: ESI+ in SIM mode (m/z=181.1 and 195.1) with the following parameters: interface voltage=4.5 kV, DL voltage=10 V, Q-array DC=0 V, Q-array RF=40 V (for m/z=181.1) or 10 V (for m/z=195.1). The GO-DAN and MGO-DAN compounds are respectively detected at the retention times of 3.9 min and 5.4 min.

[2] = Scavenging of methylglyoxal (MGO) generated from glucose incubated at 37° C., LC-MS assay after 2,3-diaminonaphthalene derivatization; conditions: for MGO scavenging activity (in words): compound 100 μM added on 7th day, FIG. 2; for level of MGO observed after 14 days: glucose 50 mM, phosphate buffer pH 7.4, 37° C., compound added on 7th day, final concentration 100 μM
Method: as §1, §2, §3, §4

[3] = system: advanced glycation end-products (AGEs) on human albumin; experiment: Inhibition of AGE formation: fluorescence of human albumin incubated with glucose; format: biochemical; conditions: human albumin 50 g/l, glucose 500 mM, compound 50 mM, 37° C., 20 days; ex 370 nm, em 440 nm
Method: Human albumin at physiological concentration (50 g/l) is incubated with glucose (500 mM in phosphate buffer at 100 mM, pH=7.4) at 37° C. for 20 days in the presence or absence of the compounds tested (50 mM). A measurement of the fluorescence (reading at 440 nm after excitation at 370 nm) is then carried out on each sample. The results are expressed in the form of a fluorescence read (sample)/maximum fluorescence observed (control without scavenger compound, D=20) ratio.
A solution of human albumin (50 g/l) and of glucose (500 mM) in phosphate buffer (100 mM, pH=7.4) is prepared. 1000 μl of the previous solution are then immediately charged to tubes, each containing one of the compounds tested (50 μmol). The resulting solutions are homogenized (vortex for 10 sec) and then immediately filtered through a sterile 0.2 μm membrane into sterile capped Eppendorf tubes (1.5 ml), under a vertical laminar flow filtering hood. The tubes are then stoppered and placed at 37° C., in the dark, for 20 days. After a return to ambient temperature (22° C.), a measurement of the fluorescence (λex=370 nm, λem=440 nm) is carried out on 200 μl of each sample.

Row | SMILES | GO scavenging activity (in words) [1] | level of GO observed after 14 days [1] [µM] | MGO scavenging activity (in words) [2] | level of MGO observed after 14 days [2] [µM] | relative fluorescence (fluorescence read/maximum fluorescence of control D=20) [3] [%]
1 | NC[C@@H](N)C(=O)N1CCN(Cc2ccc(O)c3ncccc23)CC1 [Compound 11, (2R)-2,3-diamino-1-{4-[(8-hydroxyquinolin-5-yl)methyl]piperazin-1-yl}propan-1-one] | good capacity for scavenging of GO and of MGO | 3.0 | good capacity for scavenging of GO and of MGO | 0.19 | 3
2 | NC[C@@H](N)C(=O)N1CCN(C(=O)Cc2ccc(O)c3ncccc23)CC1 [Compound 13, (2R)-2,3-diamino-1-{4-[2-(8-hydroxyquinolin-5-yl)acetyl]piperazin-1-yl}propan-1-one] | good capacity for scavenging of GO and of MGO | 2.6 | good capacity for scavenging of GO and of MGO | 0.12 | 2
3 | NC[C@@H](N)C(=O)N1CCOCC1 [Compound 4e] | – | – | – | – | 19
4 | C[C@@H](N)C(=O)N1CCOCC1 [D-Ala-Morpholine] | – | – | – | – | 78
5 | NC[C@@H](N)C(=O)N1CCN(C(=O)[C@H](N)CN)CC1 [Compound 6a, (2R,2′R)-1,1′-(piperazine-1,4-diyl)bis(2,3-diaminopropan-1-one)] | activity close to or even greater than that of the reference compound, aminoguanidine | – | activity close to or even greater than that of the reference compound, aminoguanidine | – | –
6 | CC1CCN(C(=O)[C@H](N)CN)CC1 [Compound 4c] | activity close to or even greater than that of the reference compound, aminoguanidine | – | activity close to or even greater than that of the reference compound, aminoguanidine | – | –
7 | NC[C@@H](N)C(=O)N1CCN(C2CCCCC2)CC1 [Compound 4h, (2R)-2,3-diamino-1-(4-cyclohexylpiperazin-1-yl)propan-1-one] | activity close to or even greater than that of the reference compound, aminoguanidine | – | activity close to or even greater than that of the reference compound, aminoguanidine | – | –
8 | NCCC(=O)N[C@@H](Cc1cnc[nH]1)C(=O)O [carnosine] | – | – | – | – | 60
9 | CC(C)C[C@H](NC(=O)[C@H](N)CN)C(=O)O [D-Dap-L-Leu] (HELM PEPTIDE1{[NC[C@@H](N)C(=O)[*:2]].L}$$$$V2.0) | – | – | – | – | 43
10 | Oc1cccc2cccnc12 [8-hydroxyquinoline] | – | – | – | – | 40
11 | N=C(N)NN [aminoguanidine, reference compound] | – | 68.4 | – | 1.20 | 3
